Measured values as given in patent US7495011B2 (priority 2003, dated 2009).

Key:
SARS virus [1] = assay: microbe, parasite or virus in culture; type: cell-based, SARS-associated coronavirus; conditions: Severe acute respiratory syndrome coronavirus, Vero, read-out: EC50 (concentration required to inhibit cytopathic effects by viral infection to 50% of the control value)
in vitro = conditions: African green monkey
SARS virus [2] = conditions: background art; cited from earlier work
SARS virus [3] = type: cell-based, SARS-associated coronavirus; conditions: 10 μM, FIG. 1E
SARS virus [4] = type: cell-based, SARS-associated coronavirus; conditions: 10 μM, FIG. 1B
SARS virus [5] = type: cell-based, SARS-associated coronavirus; conditions: 10 μM, Vero cells, FIG. 1D

For `CC1(C)[C@@H](O[C@H]2O[C@H](C(=O)O)[C@@H](O)[C@H](O)[C@H]2O[C@@H]2O[C@H](C(=O)O)[C@@H](O)[C@H](O)[C@H]2O)CC[C@]2(C)[C@H]3C(=O)C=C4[C@@H]5C[C@@](C)(C(=O)O)CC[C@]5(C)CC[C@@]4(C)[C@]3(C)CC[C@@H]12` [Glycyrrhizin, glycyrrhizin], the EC50 (SARS virus [1]) is given as 364 µM, the CC50 (in vitro) is given as over 24300 µM and the “Efficacy against the SARS virus as reported in the literature” value (SARS virus [2]) is given as “extremely limited potency”.
In the case of `Cc1c(O)cccc1C(=O)N[C@@H](CSc1ccccc1)[C@H](O)CN1C[C@H]2CCCC[C@H]2C[C@H]1C(=O)NC(C)(C)C` [Nelfinavir, nelfinavir], the “RNA levels of the SARS virus in Vero cells (RT-PCR)” value (SARS virus [3]) is reported as “highly inhibitive against the propagation of the SARS virus”, the EC50 (SARS virus [1]) is reported as 0.0484 µM and the CC50 (in vitro) is reported as 14.6 µM. The “Morphology of SARS virus-infected Vero cells” value (SARS virus [4]) was “had the same morphology as normal cells” and the “SARS virus infection by immunofluorescence antibody staining” value (SARS virus [5]) was “advantageously controlled”.
